Experimental data published in patent US8138304B2, “Neural regeneration peptides and formulations thereof” (Neuren Pharmaceuticals Limited, priority 2005, dated 2012).
Where no end group is shown, it is not given here.

Experiments:
Format in all cases: cell-based
[1] = system: mouse neural stem cells (MEB-5 cells); assay: Haptotactic migration assay, physiological (injury-free) conditions; conditions: 0.1 ng/ml NRP coating
Experimental: An NRP was tested for migration-inducing/chemoattractive activity on mouse neural stem cells in a haptotactic migration assay as described below.
Control wells of Transwell plates (Corning) with 12 μm pore size were coated in 1.5 ml of the BSA/PBS vehicle. Remaining plates were coated using 0.1 ng/ml of NRP (SEQ ID NO: 1) (prepared in PBS containing 10 ug/ml BSA).
Laminin (7 μg/ml) was used as extracellular matrix (ECM) coating for mouse primary stem cells. The matrix was incubated at 37° C.; 5% C02 for 2 hrs at room temperature. The cells were seeded onto the inserts (30,000 cells per well). Plates were fixed at 1-2 days in vitro (DIV).
A 5 ug/mL PDL/PLL mixture (in PBS) was used to coat inserts. Subsequently the inserts were rinsed with MilliQ water.
Inserts were discarded and wells fixed in successive dilutions of PFA (0.4, 1.2, 3 and 4%) for 3-5 min in each dilution. […] The wells were rinsed and stored in PBS until counting.

[2] = system: embryonic mouse neural stem cells (NSCs); assay: Haptotactic migration assay in injury conditions (activated astroglial monolayer); conditions: 100 fM in lower compartment; TGFβ1 and scratch-activated astrocyte monolayer; 24 hrs
Experimental: The NRP of SEQ ID NO: 1 was tested for migration-inducing/chemoattractive activity on mouse neural stem cells in a haptotactic migration assay in injury conditions, as described below.
P1 (postnatal day 1) Wistar or Sprague Dawley rats were sacrificed by decapitation. Cortical hemispheres were removed and collected into separate tubes containing 4 ml DMEM—1 cortex per tube. The tissue was mechanically triturated. Cells were transferred into medium using a sterile pipette and filtered through a 100 um cell strainer into a 50 ml centrifuge tube. Each tube was stocked up to 50 ml with DMEM. The tubes were centrifuged for 5 mins at 350×g at 22° C. The cells were resuspended in 40 ml of DMEM+10% FBS. The cells were then seeded into a 12-well plate+5 nM ocadaic acid (to remove neurons by inducing apoptotic cell death) and incubated at 37° C./10% CO2 for 24 hrs […]. The medium+FBS was replaced after 1 day with fresh DMEM+10% FBS. The cell growth was monitored until confluency (14-18 days).
Induction of injuries to the astrocytic monolayer was accomplished using the pharmacological agent transforming growth factor β1 (TGFβ1) and simultaneous mechanical scratching of the monolayer in order to activate astrocytics. […]
Migrated stem cell number of labelled cells were analysed after 24 hrs by a fluorescence-based computerized imaging system (Discovery-1).

[3] = system: human primary trophoblasts; assay: Trophoblast haptotactic migration (Boyden chamber) assay; conditions: 0.1 ng/ml coating, 100 fM in inserts; 22 hrs
Experimental: Human trophoblast cells were isolated from term placentas with prior approval by the Ethics Committee of the University of Auckland and consent of the patients. The maternal decidua was removed, exposing the villous interior of the placenta. Pieces of villous tissue were cut out and washed thoroughly with PBS before digestion using 0.25% trypsin. The digest was then diluted in Locke Ringers Buffer and DNAase I. Digestion of connective tissue surrounding the placental cells was carried out while stirring the mixture with a magnetic stirrer at a temperature of 37° C. The process was repeated 8 times, with the last 6 supernatants being collected in a bottle containing fetal bovine serum (FBS). The digestion step produced a heterogeneous dispersed cell preparation. The pooled supernates was centrifuged for 7 minutes at 1200 rpm. The cell pellet was resuspended in PBS and centrifuged. […]
Cells were then purified using a percoll gradient (5, 20, 30, 35, 40, 50 and 60%). […] This band was collected, the cells washed in M199 medium centrifuged and finally counted and plated according to the methods of Keelan et al, 1998. […]
Under control conditions, the bottom of the chamber is not pre-coated with a putative chemoattractive agent. […] Thus, the number of migratory cells can be quantified. […]

“REGRRAAPGRAGG-NH2 (listed as Homo sapiens) [SEQ ID NO: 1, 13-mer NRP analogue]” was tested, and the “more cells migrating in comparison with BSA-vehicle” value [1] was 55.4%, the “more stem cells migrated than vehicle-treated controls” value [2] was 69.1% and the “increase of migratory cells” value [3] was 95%.
